Columns and labels:
[1] = system: Amyloid-β peptide release (Aβ42), HEK cells overexpressing APP (HEK-APP); test: Amyloid-β peptide release (Aβ42) assay, AlphaLISA on supernatant of HEK-APP cells; type: cell-based; details: Homo sapiens, HEK293, 24 h incubation with compound, read-out: Ab42 IC50 Ranges
How it was run: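 HEK-APP cells treated with compounds for 24 h at 37 °C, 5% CO2. Supernatant Aβ42 or total Aβ measured by AlphaLISA after 4.5 h with antibody beads (6E10 acceptor beads for total). IC50 values derived.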

[2] = system: Amyloid-β peptide release (AβTotal), HEK cells overexpressing APP (HEK-APP); test: Amyloid-β peptide release (AβTotal) assay, AlphaLISA on supernatant of HEK-APP cells; type: cell-based; details: ratio Abtot vs Ab42, HEK-APP cells, 24 h

| Compound | IC50 [1] [nM] | Abtot/Ab42 selectivity ranges [2] |
| --- | --- | --- |
| COc1cc(NC(=O)Cc2cccc3ccccc23)ccc1-c1nn2c(C)ncc2s1 [Example 125, N-[3-Methoxy-4-(5-methyl-imidazo[5,1-b][1,3,4]thiadiazol-2-yl)-phenyl]-2-naphthalen-1-yl-acetamide] | 100 to 500 | c (c: 50 fold > selectivity ≥ 10 fold) |
| Cc1ncc2oc(-c3ccc(NC(=O)Cc4ccc(C(C)(C)C)cc4)cc3)nn12 [Example 57, 2-(4-tert-Butyl-phenyl)-N-[4-(5-methyl-imidazo[5,1-b][1,2,4]oxadiazol-2-yl)-phenyl]-acetamide] | 500 to 1000 | b (b: 100 fold > selectivity ≥ 50 fold) |
| Cc1ncc2oc(-c3ccc(NC(=O)C(C)c4cccc(C(F)(F)F)c4)cc3)nn12 (stereo not shown) [Example 55, N-(4-(5-methylimidazo[5,1-b][1,3,4]oxadiazol-2-yl)phenyl)-2-(3-(trifluoromethyl)phenyl)propanamide] | 1000 to 2200 | c (c: 50 fold > selectivity ≥ 10 fold) |
| COc1ccc(Cl)c(CC(=O)Nc2ccc(-c3nn4c(C)ncc4o3)cc2)c1F [Example 69, 2-(6-chloro-2-fluoro-3-methoxyphenyl)-N-(4-(5-methylimidazo [5,1-b][1,3,4]oxadiazol-2-yl)phenyl)acetamide] | 500 to 1000 | b (b: 100 fold > selectivity ≥ 50 fold) |
| COc1cc(C(=O)NCc2ccc(Cl)c(Cl)c2)ccc1-c1nn2c(C)ncc2o1 [Example 19, N-(3,4-Dichloro-benzyl)-3-methoxy-4-(5-methyl-imidazo[5,1-b][1,2,4]oxadiazol-2-yl)-benzamide] | 1000 to 2200 | c (c: 50 fold > selectivity ≥ 10 fold) |
| Cc1ncc2oc(-c3ccc(Nc4nc5c(s4)CCCC5c4ccc(F)cc4)cc3)nn12 (stereo not shown) [Example 27, [4-(4-Fluoro-phenyl)-4,5,6,7-tetrahydro-benzothiazol-2-yl]-[4-(5-methyl-imidazo[5,1-b][1,2,4]oxadiazol-2-yl)-phenyl]-amine] | 1000 to 2200 | d (d: 10 fold > selectivity) |
| Cc1ncc2sc(C(=O)N(C)Cc3cccc(Cl)c3)nn12 [Example 95, 5-Methyl-imidazo[5,1-b][1,3,4]thiadiazole-2-carboxylic acid (3-chloro-benzyl)-methyl-amide] | 500 to 1000 | d (d: 10 fold > selectivity) |
| Cc1ncc2sc(C(=O)N3CCCCC3Cc3ccccc3)nn12 (stereo not shown) [Example 117, (2-Benzyl-piperidin-1-yl)-(5-methyl-imidazo[5,1-b][1,3,4]thiadiazol-2-yl)-methanone] | 1000 to 2200 | d (d: 10 fold > selectivity) |
| COc1cc(NC(=O)Cc2cccc(C(F)(F)F)c2)ccc1-c1nn2c(C)ncc2o1 [Example 31, N-(3-methoxy-4-(5-methylimidazo[5,1-b][1,3,4]oxadiazol-2-yl)phenyl)-2-(3-(trifluoromethyl)phenyl)acetamide] | 100 to 500 | a (a: selectivity ≥ 100 fold) |
| Cc1ncc2oc(-c3ccc(NC(=O)Cc4ccc(OC(F)(F)F)cc4)cn3)nn12 [Example 11, N-[6-(5-Methyl-imidazo[5,1-b][1,2,4]oxadiazol-2-yl)-pyridin-3-yl]-2-(4-trifluoromethoxy-phenyl)-acetamide] | 100 to 500 | b (b: 100 fold > selectivity ≥ 50 fold) |
| Cc1ncc2oc(-c3ccc(NC(=O)Cc4ccc(C(F)(F)F)cc4Br)cc3)nn12 [Example 5, 2-(2-Bromo-4-trifluoromethyl-phenyl)-N-[4-(5-methyl-imidazo[5,1-b][1,2,4]oxadiazol-2-yl)-phenyl]-acetamide] | 500 to 1000 | c (c: 50 fold > selectivity ≥ 10 fold) |
| CCC(C(=O)Nc1ccc(-c2nn3c(C)ncc3o2)nc1)c1ccccc1 (stereo not shown) [Example 85, N-[6-(5-Methyl-imidazo[5,1-b][1,2,4]oxadiazol-2-yl)-pyridin-3-yl]-2-phenyl-butyramide] | 1000 to 2200 | c (c: 50 fold > selectivity ≥ 10 fold) |
| Cc1ncc2oc(-c3ccc(Nc4nccc(NCc5cccc(C(F)(F)F)c5)n4)cc3)nn12 [Example 76, N2-(4-(5-methylimidazo[5,1-b][1,3,4]oxadiazol-2-yl)phenyl)-N4-(3-(trifluoromethyl)benzyl) pyrimidine-2,4-diamine] | 1000 to 2200 | d (d: 10 fold > selectivity) |
| Cc1ncc2oc(-c3ccc(Nc4nc5c(s4)CCCC5c4ccccc4)cc3)nn12 (stereo not shown) [Example 26, [4-(5-Methyl-imidazo[5,1-b][1,2,4]oxadiazol-2-yl)-phenyl]-(4-phenyl-4,5,6,7-tetrahydro-benzothiazol-2-yl)-amine] | 1000 to 2200 | c (c: 50 fold > selectivity ≥ 10 fold) |
| Cc1cc(-c2nn3c(C)ncc3o2)ccc1NC(=O)Cc1c(Cl)cc(C(F)(F)F)cc1Cl [Example 42, 2-(2,6-dichloro-4-(trifluoromethyl)phenyl)-N-(2-methyl-4-(5-methylimidazo[5,1-b][1,3,4]oxadiazol-2-yl)phenyl)acetamide] | 500 to 1000 | b (b: 100 fold > selectivity ≥ 50 fold) |
| Cc1ncc2oc(-c3ccc(NC(=O)Cc4cccc(Br)c4)cc3)nn12 [Example 9, 2-(3-Bromo-phenyl)-N-[4-(5-methyl-imidazo[5,1-b][1,2,4]oxadiazol-2-yl)-phenyl]-acetamide] | 500 to 1000 | c (c: 50 fold > selectivity ≥ 10 fold) |
| COc1cc(NC(=O)Cc2ccc(OC(F)(F)F)cc2)ccc1-c1nn2c(C)ncc2o1 [Example 34, N-(3-methoxy-4-(5-methylimidazo[5,1-b][1,3,4]oxadiazol-2-yl)phenyl)-2-(4-(trifluoromethoxy)phenyl)acetamide] | 500 to 1000 | b (b: 100 fold > selectivity ≥ 50 fold) |
| COc1cc(NC(=O)Cc2ccccc2C(F)(F)F)ccc1-c1nn2c(C)ncc2o1 [Example 37, N-(3-methoxy-4-(5-methylimidazo[5,1-b][1,3,4]oxadiazol-2-yl)phenyl)-2-(2-(trifluoromethyl)phenyl)acetamide] | 1000 to 2200 | c (c: 50 fold > selectivity ≥ 10 fold) |
| Cc1nc(C)n2nc(-c3ccc(C(=O)NCc4ccccc4C(F)(F)F)cc3)oc12 [Example 23, 4-(5,7-Dimethyl-imidazo[5,1-b][1,2,4]oxadiazol-2-yl)-N-(2-trifluoromethyl-benzyl)-benzamide] | 1000 to 2200 | c (c: 50 fold > selectivity ≥ 10 fold) |
| Cc1ncc2oc(-c3ccc(NC(=O)Cc4ccc(Cl)c(Cl)c4)cn3)nn12 [Example 12, 2-(3,4-Dichloro-phenyl)-N-[6-(5-methyl-imidazo[5,1-b][1,2,4]oxadiazol-2-yl)-pyridin-3-yl]-acetamide] | 500 to 1000 | c (c: 50 fold > selectivity ≥ 10 fold) |
| Cc1ncc2oc(-c3ccc(Nc4nc5n(n4)CCCC5c4ccc(F)cc4)cc3)nn12 (stereo not shown) [Example 24, 8-(4-fluorophenyl)-N-(4-(5-methylimidazo[5,1-b][1,3,4]oxadiazol-2-yl)phenyl)-5,6,7,8-tetrahydro-[1,2,4]triazolo[1,5-a]pyridin-2-amine] | 500 to 1000 | c (c: 50 fold > selectivity ≥ 10 fold) |
| Cc1ncc2sc(C(=O)N(C)Cc3cccc(C(F)(F)F)c3)nn12 [Example 101, 5-Methyl-imidazo[5,1-b][1,3,4]thiadiazole-2-carboxylic acid methyl-(3-trifluoromethyl-benzyl)-amide] | 500 to 1000 | d (d: 10 fold > selectivity) |
| Cc1ncc2oc(-c3ccc(NC(=O)Cc4cccc5ccccc45)cc3)nn12 [Example 71, N-(4-(5-methylimidazo[5,1-b][1,3,4]oxadiazol-2-yl)phenyl)-2-(naphthalen-1-yl)acetamide] | 500 to 1000 | b (b: 100 fold > selectivity ≥ 50 fold) |
| Cc1ncc2oc(-c3ccc(NC(=O)Cc4cc(F)ccc4C(F)(F)F)cc3)nn12 [Example 66, 2-(5-fluoro-2-(trifluoromethyl)phenyl)-N-(4-(5-methylimidazo [5,1-b][1,3,4]oxadiazol-2-yl)phenyl)acetamide] | 1000 to 2200 | c (c: 50 fold > selectivity ≥ 10 fold) |
| Cc1ncc2oc(-c3ccc(NC(=O)Cc4ccc(Oc5ccccc5)cc4)cn3)nn12 [Example 78, N-[6-(5-Methyl-imidazo[5,1-b][1,2,4]oxadiazol-2-yl)-pyridin-3-yl]-2-(4-phenoxy-phenyl)-acetamide] | 1000 to 2200 | c (c: 50 fold > selectivity ≥ 10 fold) |
| Cc1ncc2oc(-c3ccc(NC(=O)Cc4ccc(C(F)(F)F)cc4)cc3)nn12 [Example 48, N-[4-(5-Methyl-imidazo[5,1-b][1,2,4]oxadiazol-2-yl)-phenyl]-2-(4-trifluoromethyl-phenyl)-acetamide] | 1000 to 2200 | c (c: 50 fold > selectivity ≥ 10 fold) |
| Cc1cc(-c2nn3c(C)ncc3o2)ccc1NC(=O)Cc1cccc(C(F)(F)F)c1 [Example 41, N-(2-methyl-4-(5-methylimidazo[5,1-b][1,3,4]oxadiazol-2-yl)phenyl)-2-(3-(trifluoromethyl)phenyl)acetamide] | 500 to 1000 | b (b: 100 fold > selectivity ≥ 50 fold) |
| Cc1ccccc1CC(=O)Nc1ccc(-c2nn3c(C)ncc3o2)cc1 [Example 60, N-[4-(5-Methyl-imidazo[5,1-b][1,2,4]oxadiazol-2-yl)-phenyl]-2-o-tolyl-acetamide] | 1000 to 2200 | c (c: 50 fold > selectivity ≥ 10 fold) |
| COc1cc(C(=O)NCc2cccc(C(F)(F)F)c2)ccc1-c1nn2c(C)ncc2o1 [Example 18, 3-Methoxy-4-(5-methyl-imidazo[5,1-b][1,2,4]oxadiazol-2-yl)-N-(3-trifluoromethyl-benzyl)-benzamide] | 1000 to 2200 | c (c: 50 fold > selectivity ≥ 10 fold) |
